Data reported in US20250188082A1, “Use of Hypoxanthine Compound In Preparation of Drug For Treating Pulmonary Fibrosis” (Sichuan Yiasuo Pharmaceutical Technology Co., Ltd., priority 2022, published 2025).

Tests used:
Type in all cases: in vivo, C57BL/6 mice
[1] = system: bleomycin-induced pulmonary fibrosis model; experiment: Early pulmonary fibrosis: bleomycin-induced model, dosing from one week after modelling; settings: early pulmonary fibrosis, 120 mg/kg/d intragastric, 14 days, from one week after model; for Leucocyte / Lymphocyte / Neutrophil: blood, Day 15, twice every day; for Ashcroft scores: lung tissue HE staining
[2] = system: bleomycin-induced pulmonary fibrosis model; experiment: Advanced pulmonary fibrosis: bleomycin-induced model, dosing from three weeks after modelling; settings: advanced pulmonary fibrosis, 120 mg/kg/d intragastric, 14 days, from three weeks after model; for Leucocyte / Lymphocyte / Neutrophil: blood, Day 15, twice every day; for Ashcroft scores: lung tissue HE staining
[3] = system: Streptococcus pneumoniae-induced pulmonary fibrosis model; experiment: Streptococcus pneumoniae-induced pulmonary fibrosis model; settings: Streptococcus pneumoniae + bleomycin, 120 mg/kg/d intragastric, 14 days; for Leucocyte / Lymphocyte / Neutrophil: blood, Day 15, 3 times every day, from one week after model; for Ashcroft scores: lung tissue HE staining
[4] = system: influenza B virus-induced pulmonary fibrosis model (influenza B (H7N9) virus); settings: 120 mg/kg/d intragastric, 14 days; for Ashcroft scores: influenza B virus + bleomycin, lung tissue HE; for IL-1β / NF-κB / TNF-α / IL-6: serum, from two weeks after model; for IL-1β / NF-κB / TNF-α: influenza B (H7N9) + bleomycin; for IL-6: influenza B + bleomycin
[5] = system: coronavirus-induced pulmonary fibrosis model (HcoV-OC43); experiment: Coronavirus-induced pulmonary fibrosis model; settings: 120 mg/kg/d intragastric, 14 days; for Ashcroft scores: coronavirus HcoV-OC43 + bleomycin, lung tissue HE; for IL-1β / IL-6 / NF-κB / TNF-α: serum, HcoV-OC43 + bleomycin, from two weeks after model
Source text: Experimental method: an in-vivo coronavirus-induced pulmonary fibrosis model mice was established: C57BL/6 mice (with weights being 22-25 g) were randomly and evenly divided into a plurality of groups, including blank control group, model group, Nintedanib positive control group, hypoxanthine analogue A group, hypoxanthine analogue B group, hypoxanthine analogue C group, compound 1 group, compound 2 group . . . compound 12 group, with 9 mice in each group. On Day 1, the mice in the blank control group were instilled with normal saline nasally, and the mice in other groups were all infected with HcoV-OC43 coronavirus strains (30 μL) through nasal instillation. On Day 2, the mice received 5 mg/kg bleomycin through tracheas to induce their pulmonary fibrosis. After the model was established for two weeks, the mice in each group were intragastrically administrated for intervention for consecutive 14 days; the mice in blank control group and model group intragastrically received the same dosage of the normal saline as those in drug groups; the mice in Nintedanib positive control group received Nintedanib (120 mg/kg); the mice in hypoxanthine analogue A group, hypoxanthine analogue B group and hypoxanthine analogue C group respectively received hypoxanthine analogue A (120 mg/kg/d), hypoxanthine analogue B (120 mg/kg/d) and hypoxanthine analogue C (120 mg/kg/d); and the mice in compound 1 group, compound 2 group . . . compound 12 group respectively received compound 1 (120 mg/kg/d), compound 2 (120 mg/kg/d) . . . compound 12 (120 mg/kg/d) prepared in example 1. After administration for consecutive 14 days, the mice were observed every day, and their weights and death conditions were recorded. After administration, blood was taken from eyeballs for immediately detecting the expression levels of NF-κB, TNF-α, IL-1 and IL-6 in serum, and lung tissues were taken for HE detection and Ashcroft scoring.

[6] = system: mycoplasma-induced pulmonary fibrosis model (MPFH strain); experiment: Mycoplasma-induced pulmonary fibrosis model; settings: 120 mg/kg/d intragastric, 14 days; for Leucocyte / Lymphocyte / Neutrophil: MPFH mycoplasma + bleomycin, once a day, from two weeks after model; for Ashcroft scores: mycoplasma + bleomycin, lung tissue HE
Source text: Experimental method: an in-vivo mycoplasma-induced pulmonary fibrosis model was established: C57BL/6 mice (with weights being 22-25 g) were randomly and evenly divided into a plurality of groups, including blank control group, model group, Nintedanib positive control group, hypoxanthine analogue A group, hypoxanthine analogue B group, hypoxanthine analogue C group, compound 1 group, compound 2 group . . . compound 12 group, with 9 mice in each group. Before a model was established, the mice were anesthetized with diethyl ether. In addition to that the mice in blank control group with instilled with 100 μL of normal saline nasally, the mice in other groups with slowly instilled with an equal volume of a MPFH strain solution (containing 1×10^7 mL^−1 MPFH strain) to the nasal cavity, for consecutive 3 days, and inhaled the MPFH strain solution into bronchi. After instillation with mycoplasmas through tracheas, the mice received 5 mg/kg bleomycin through tracheas to induce their pulmonary fibrosis. After the model was established for two weeks, the mice in each group were intragastrically administrated for intervention for consecutive 14 days; the mice in blank control group and model group intragastrically received an equal dosage of normal saline as those in drug groups; the mice in Nintedanib positive control group received Nintedanib (120 mg/kg); the mice in hypoxanthine analogue A group, hypoxanthine analogue B group and hypoxanthine analogue C group respectively received hypoxanthine analogue A (120 mg/kg/d), hypoxanthine analogue B (120 mg/kg/d) and hypoxanthine analogue C (120 mg/kg/d); and the mice in compound 1 group, compound 2 group . . . compound 12 group respectively received compound 1 (120 mg/kg/d), compound 2 (120 mg/kg/d) . . . compound 12 (120 mg/kg/d) prepared in example 1. The mice were administrated once a day to be treated for consecutive 14 days. The mice were observed every day, and their weights and death conditions were recorded. On the last day of administration, the mice were sacrificed; and blood was taken from eyeballs and kept at −80° C. for detecting blood routine indexes. Meanwhile, lungs were lavaged with normal saline and separated to collect lavage fluids for detecting counts and classes of leucocytes; and lung tissues were taken for HE straining and Ashcroft scoring on the extent of pulmonary fibrosis.

SMILES	Leucocyte [1]	Lymphocyte [1]	Neutrophil [1]	Ashcroft scores [1]	Leucocyte [2]	Lymphocyte [2]	Ashcroft scores [4]	IL-1β [4]	NF-κB [4]	TNF-α [4]	IL-6 [4]	Ashcroft scores [5]	IL-1β [5]	IL-6 [5]	NF-κB [5]	TNF-α [5]	Leucocyte [6]	Lymphocyte [6]	Neutrophil [6]	Ashcroft scores [6]	further results
CC(C)Oc1ncnc2ncn(C(C)C)c12 [Compound 4]	4.29 10^9/L	5.56 10^9/L	1.31 10^9/L	1.18	4.26 10^9/L	5.63 10^9/L	1.17	27.6 pg/mL	29.3 pg/mL	73.9 pg/mL	66.7 pg/mL	1.39	35.5 pg/mL	63.9 pg/mL	26.7 pg/mL	52.9 pg/mL	6.79 10^9/L	73.37 10^9/L	22.54 10^9/L	1.05	Neutrophil [2]: 1.34 10^9/L; Ashcroft scores [2]: 1.24; Leucocyte [3]: 6.99 10^9/L; Lymphocyte [3]: 6.84 10^9/L; Neutrophil [3]: 1.51 10^9/L; Ashcroft scores [3]: 1.29
CC(C)Oc1ncnc2nc[nH]c12 [Compound 5]	4.23 10^9/L	5.60 10^9/L	1.26 10^9/L	1.22	4.34 10^9/L	5.74 10^9/L	1.18	28.1 pg/mL	31.4 pg/mL	76.6 pg/mL	66.9 pg/mL	1.31	37.1 pg/mL	64.9 pg/mL	25.9 pg/mL	52.6 pg/mL	6.86 10^9/L	74.39 10^9/L	21.91 10^9/L	1.23	Neutrophil [2]: 1.36 10^9/L; Ashcroft scores [2]: 1.22; Leucocyte [3]: 6.75 10^9/L; Lymphocyte [3]: 7.64 10^9/L; Neutrophil [3]: 1.82 10^9/L; Ashcroft scores [3]: 1.25
CC(C)n1cnc2nc[nH]c(=O)c21 [Compound 6]	4.25 10^9/L	5.49 10^9/L	1.19 10^9/L	1.08	4.58 10^9/L	5.94 10^9/L	1.14	27.2 pg/mL	32.4 pg/mL	75.3 pg/mL	65.6 pg/mL	1.30	39.5 pg/mL	65.7 pg/mL	29.3 pg/mL	56.2 pg/mL	6.05 10^9/L	71.57 10^9/L	22.72 10^9/L	1.17	Neutrophil [2]: 1.59 10^9/L; Ashcroft scores [2]: 1.19; Leucocyte [3]: 5.91 10^9/L; Lymphocyte [3]: 7.55 10^9/L; Neutrophil [3]: 1.88 10^9/L; Ashcroft scores [3]: 1.27
COc1ncnc2c1ncn2C(C)C [Compound 7]							1.20	27.9 pg/mL	33.4 pg/mL	74.1 pg/mL	70.3 pg/mL	1.49	33.2 pg/mL	64.3 pg/mL	25.6 pg/mL	55.9 pg/mL	7.15 10^9/L	73.29 10^9/L	21.45 10^9/L	1.25	Leucocyte ([1]; 120 mg/kg/day): 4.19 10^9/L; Lymphocyte ([1]; 120 mg/kg/day): 5.44 10^9/L; Neutrophil ([1]; 120 mg/kg/day): 1.23 10^9/L; Ashcroft scores ([1]; 120 mg/kg/day): 1.11; Leucocyte ([2]; 120 mg/kg/day): 4.61 10^9/L; Lymphocyte ([2]; 120 mg/kg/day): 5.65 10^9/L; Neutrophil ([2]; 120 mg/kg/day): 1.44 10^9/L; Ashcroft scores ([2]; 120 mg/kg/day): 1.13; Leucocyte ([3]; 120 mg/kg/day): 6.39 10^9/L; Lymphocyte ([3]; 120 mg/kg/day): 7.72 10^9/L; Neutrophil ([3]; 120 mg/kg/day): 1.88 10^9/L; Ashcroft scores ([3]; 120 mg/kg/day): 1.29
